Results on 21 compounds are retold here after article PMC3477293 (ACS chemical biology, 2012).

“And” between values parts separate entries of the source, which are not always exact repeats. Equal values may be shown once. Read-outs that look alike come from different tables or passages of the source.

Assay [1] relates to A. baumannii (ΔabaI). As to the kind of experiment: A. baumannii biofilm assay. The conditions noted are these: AHL at 100 µM, crystal violet, 24 h; for reduction of biofilm recovery: (R)-OH-dDHL added; for inhibition of biofilm formation (in words): biofilm recovery with (R)-OH-dDHL. Type of assay: cell-based, Acinetobacter baumannii.
Assay [2] relates to A. baumannii (ΔabaI). Put plainly: A. baumannii motility assay on soft agar. Type of assay: cell-based, Acinetobacter baumannii. The conditions noted are these: for IC50: Acinetobacter baumannii, read-out: IC50 value, motility inhibition; for concentration preventing migration (comparable to ΔabaI mutant): (R)-OH-dDHL supplemented 0.3% soft agar.
In the next assay the test system is wild-type A. baumannii. Put plainly: A. baumannii biofilm assay. Format: cell-based. The conditions noted are these: Acinetobacter baumannii, read-out: inhibition of biofilm formation.
Assay [3] concerns the target T1, AbaR (Acinetobacter nosocomialis, UniProt A0A0N8YGA2). Put plainly: AbaR antagonism reporter gene. Format: cell-based, Acinetobacter baumannii. The settings on record: for AbaR antagonistic activity (in words): primary screening data. For orientation: In a reporter assay the amount or activity of a reporter protein is the signal.
Assay [4] has as its target T1, AbaR. Put plainly: AbaR agonism reporter gene. Type of assay: cell-based, Acinetobacter baumannii. The conditions noted are these: for Activation [%]: AHLs at 100 µM, normalized to (R)-OH-dDHL at 100 µM (set to 100%), error ≤ ±10%; for EC50: EC50, AHLs over 200 pM – 200 µM; for AbaR agonism (in words): 100 µM.
Assay [5] deals with T1, AbaR. The settings on record: identical A. baumannii reporter strain; ref 43 (Garner et al.); cited from earlier work.
Another assay relates to LasR. The settings on record: cited from earlier work.
[6] abbreviates: AHLs over 10 nM – 100 µM against (R)-OH-dDHL at 0.70 µM.

T1 sequence (A0A0N8YGA2 whole entry): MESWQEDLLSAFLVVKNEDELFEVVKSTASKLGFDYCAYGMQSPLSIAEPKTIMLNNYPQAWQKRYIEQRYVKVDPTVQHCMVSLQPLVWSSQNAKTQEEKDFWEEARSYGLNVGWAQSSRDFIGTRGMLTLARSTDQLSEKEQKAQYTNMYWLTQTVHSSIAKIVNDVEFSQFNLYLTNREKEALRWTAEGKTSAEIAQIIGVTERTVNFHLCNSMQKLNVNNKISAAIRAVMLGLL

For `O=C(Cc1ccc(I)cc1)N[C@H]1CCOC1=O` [Compound C10, 4-iodo PHL], in the assay with A. baumannii (ΔabaI) [1], the “reduction of biofilm recovery” value was ~ 40%. Also, the “inhibition of biofilm formation (in words)” value (“inhibition … (in words)” below) with A. baumannii (ΔabaI) [1] was “inhibit biofilm formation to significant levels”. For the same compound, the IC50 (commonly the point on the concentration scale where inhibition reaches its midpoint) was roughly 70 µM with A. baumannii (ΔabaI) [2] and 7.06 µM on AbaR [3]. Also, the inhibition – broadly, how much of the control response was suppressed – at 100 µM in the assay with wild-type A. baumannii is roughly 40%; at AbaR [3] it was 91%.
At AbaR [3], `O=C(Cc1ccccc1Cl)N[C@H]1CCOC1=O` [Compound C7] showed an inhibition at 100 µM of 83%. On AbaR [3] (setting [6]), this compound returned an IC50 of 18.5 µM.
With `CCCCCCCC(=O)NC1CCOC1=O` (stereo not drawn) [Compound A3, octanoyl-HL], the “Inhibition [%]” value on AbaR [3] (AHLs at 100 µM against (R)-OH-dDHL at 0.70 µM, error ≤ ±10%) amounted to 60%.
Regarding `O=C(Cc1cccc([N+](=O)[O-])c1)N[C@H]1CCOC1=O` [Compound C14, 3-nitro PHL], the IC50 in the assay with A. baumannii (ΔabaI) [2] is roughly 70 µM. At AbaR [3], this compound returned an IC50 of 8 µM and an inhibition at 100 µM of 70%.
At AbaR [3], `O=C(Cc1ccc(Cl)cc1)N[C@H]1CCOC1=O` [Compound C5] returned an inhibition at 100 µM of 78%. In addition, the IC50 against AbaR [3] (setting [6]) is 16.7 µM.
For the compound `O=C(Cc1ccc(Br)cc1)N[C@H]1CCOC1=O` [Compound 8, 4-bromo PHL], on AbaR [3], the IC50 turned out to be 7.83 µM and the inhibition at 100 µM amounted to 71%.
For `O=C(Cc1ccc(F)cc1)N[C@H]1CCOC1=O` [Compound C2], the IC50 on AbaR [3] (setting [6]) was greater than 25 µM.
At AbaR [3], `CCCCCCC(=O)N[C@H]1CCOC1=O` [Compound 4, heptanoyl-HL] yielded an IC50 of 13.7 µM and an inhibition at 100 µM of 75%.
Consider `O=C(Cc1ccccc1I)N[C@H]1CCOC1=O` [Compound C12, 2-iodo-PHL], for which, in the assay with A. baumannii (ΔabaI) [2], the IC50 was roughly 40 µM. At AbaR [3], 6.13 µM corresponded to half-maximal inhibition (IC50) and the inhibition at 100 µM was determined as 80%.
On to `CCCCCCCCC[C@@H](O)CC(=O)N[C@H]1CCOC1=O` [(R)-OH-dDHL, N-(3’-hydroxydodecanoyl)-L-HL, reference compound], for which, on AbaR [4], the “Activation [%]” value worked out at 100%. Besides, the EC50 (commonly the concentration at which the effect is half-maximal) on AbaR [4] was 0.7 µM and 0.699 µM; on AbaR [5], 0.67 µM. Further, on AbaR [4] (from EC50 values), the “fold more active than (S)-OH-dDHL (AbaR activation)” value is listed as ~ 40 fold.
Consider `O=C(Cc1cccc(I)c1)N[C@H]1CCOC1=O` [Compound C11, 3-iodo PHL], for which, in the assay on A. baumannii (ΔabaI) [2], the “concentration preventing migration (comparable to ΔabaI mutant)” value was “less than 20 µM” and the IC50 was roughly 15 µM. In addition, at AbaR [3], the IC50 stood at 2.32 µM and the inhibition at 100 µM stood at 91%.
As to `CCCCCCCCCC(=O)CC(=O)N[C@H]1CCOC1=O` [Compound 2], on AbaR [4], the “Activation [%]” value was determined as 62% and a half-maximal response (EC50) required 7.57 µM.
For the compound `O=C(Cc1cccc(Br)c1)N[C@H]1CCOC1=O` [Compound C8, 3-bromo PHL], in the assay with A. baumannii (ΔabaI) [1], the “reduction of biofilm recovery” value is on record as ~ 40% and the “inhibition … (in words)” value was “inhibit biofilm formation to significant levels”. Besides, in the assay with A. baumannii (ΔabaI) [2], the “concentration preventing migration (comparable to ΔabaI mutant)” value is “less than 20 µM” and the IC50 was roughly 7 µM. Moreover, the inhibition at 100 µM with wild-type A. baumannii is roughly 40%. For the same compound, on AbaR [3], the IC50 was determined as 5.06 µM, the inhibition at 100 µM was 90% and the “AbaR antagonistic activity (in words)” value was “moderately to strongly inhibitory”.
With `CCCCCCCCCC(=O)NC1CCOC1=O` (stereo not drawn) [Compound A7, decanoyl-HL], at AbaR [4], the “AbaR agonism (in words)” value is “limited AbaR agonism” and the “Activation [%]” value worked out at 3%.
On to `O=C(Cc1cccc(Cl)c1)N[C@H]1CCOC1=O` [Compound C6, 3-chloro PHL], for which, in the assay with A. baumannii (ΔabaI) [2], the IC50 was roughly 40 µM. For the same compound, on AbaR [3], inhibition was half-maximal at 5.47 µM (IC50) and testing at 100 µM gave an inhibition of 83%.
In the case of `O=C(CCc1ccccc1)N[C@H]1CCOC1=O` [Compound B10, phenylpropanoyl HL], on AbaR [3], the IC50 worked out at 11 µM and the inhibition at 100 µM was 72%.
For `CCCCCCCCCCCCCC(=O)NC1CCOC1=O` (stereo not drawn) [Compound A8, tetradecanoyl-HL], on AbaR [4], the “AbaR agonism (in words)” value is recorded as “limited AbaR agonism” and the “Activation [%]” value was determined as 9%.
On to `CCCCCCCCCCCC(=O)NC1CCOC1=O` (stereo not drawn) [Compound A5, dodecanoyl HL], for which, at AbaR [4], the “AbaR agonism (in words)” value is reported as “no agonistic activity”.
Take `CCCCCCCCC[C@H](O)CC(=O)N[C@H]1CCOC1=O` [(S)-OH-dDHL, N-(3’-hydroxydodecanoyl)-L-HL]: at AbaR [4], the “Activation [%]” value is 90%; the EC50 was 29 µM and 28.9 µM. For the same compound, the EC50 at AbaR [5] was 0.82 µM.
In the case of `O=C(Cc1ccccc1Br)N[C@H]1CCOC1=O` [Compound C9], at AbaR [3], the IC50 turned out to be 17.5 µM, testing at 100 µM gave an inhibition of 97% and the “AbaR antagonistic activity (in words)” value is listed as “moderately to strongly inhibitory”.
For the compound `CCCCCC(=O)CC(=O)N[C@H]1CCOC1=O` [Compound 1, 3-oxo-octanoyl-HL], on AbaR [4], the “AbaR agonism (in words)” value was “limited AbaR agonism”. Further, in the assay on LasR, the LasR inhibition is listed as 50%. In addition, the figures for the IC50 in the assay with LasR (read-out: IC50 (LasR)) and against AbaR [3] were 0.11 µM and 2.91 µM, respectively. In addition, the “inhibition … (in words)” value with A. baumannii (ΔabaI) [1] is reported as “inhibit biofilm formation to significant levels”. Besides, the “concentration preventing migration (comparable to ΔabaI mutant)” value with A. baumannii (ΔabaI) [2] was “less than 20 µM”. The compound further had an inhibition at 100 µM against AbaR [3] of 73%.
